Measurements taken from US11149057B2, “Neuroactive steroids, compositions, and uses thereof” (Sage Therapeutics, Inc., priority 2014, dated 2021).

Legend:
α4β3δ GABAA receptors = target: T1, α4β3δ GABAA receptors (Homo sapiens, UniProt P28472+P48169); assay: Manual patch clamp electrophysiology of recombinant α4β3δ GABAA receptors in CHO cells; type: cell-based; settings: 10 μM test article, GABA EC20 = 2 μM, read-out: GABA (α4β3δ) Manual patch in CHO, % efficacy at 10 μM
T1 construct: expressed in transfected cells; host or cells: CHO cells (transient transfection, Lipofectamine)
T1 sequence (P48169 36-554): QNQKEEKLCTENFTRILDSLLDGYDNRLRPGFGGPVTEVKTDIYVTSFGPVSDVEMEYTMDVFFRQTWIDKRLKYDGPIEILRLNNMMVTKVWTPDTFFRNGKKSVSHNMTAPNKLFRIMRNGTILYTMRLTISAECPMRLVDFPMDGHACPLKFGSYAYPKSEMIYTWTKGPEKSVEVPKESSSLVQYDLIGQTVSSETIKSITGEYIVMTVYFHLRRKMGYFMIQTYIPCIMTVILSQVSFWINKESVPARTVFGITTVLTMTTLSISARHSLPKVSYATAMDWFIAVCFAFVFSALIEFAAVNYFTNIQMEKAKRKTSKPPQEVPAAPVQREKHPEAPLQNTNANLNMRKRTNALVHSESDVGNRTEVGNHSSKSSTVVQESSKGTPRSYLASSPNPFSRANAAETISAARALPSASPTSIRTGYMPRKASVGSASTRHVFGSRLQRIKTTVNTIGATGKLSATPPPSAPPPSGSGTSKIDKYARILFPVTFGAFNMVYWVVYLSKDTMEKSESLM
T1 sequence (P28472 26-473): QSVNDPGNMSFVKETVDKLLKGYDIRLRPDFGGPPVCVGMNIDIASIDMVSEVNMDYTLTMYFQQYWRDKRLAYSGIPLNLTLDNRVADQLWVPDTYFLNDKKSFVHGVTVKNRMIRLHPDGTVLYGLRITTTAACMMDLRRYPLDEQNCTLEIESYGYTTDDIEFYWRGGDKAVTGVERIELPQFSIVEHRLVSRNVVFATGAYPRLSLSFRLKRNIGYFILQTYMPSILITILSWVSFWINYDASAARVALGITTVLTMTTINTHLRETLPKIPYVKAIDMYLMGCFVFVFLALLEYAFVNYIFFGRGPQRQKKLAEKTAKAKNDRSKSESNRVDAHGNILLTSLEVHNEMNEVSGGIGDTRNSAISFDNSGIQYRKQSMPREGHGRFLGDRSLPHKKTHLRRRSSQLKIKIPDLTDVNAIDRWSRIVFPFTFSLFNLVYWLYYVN
T1 sequence (O14764 17-452 partner limits assumed): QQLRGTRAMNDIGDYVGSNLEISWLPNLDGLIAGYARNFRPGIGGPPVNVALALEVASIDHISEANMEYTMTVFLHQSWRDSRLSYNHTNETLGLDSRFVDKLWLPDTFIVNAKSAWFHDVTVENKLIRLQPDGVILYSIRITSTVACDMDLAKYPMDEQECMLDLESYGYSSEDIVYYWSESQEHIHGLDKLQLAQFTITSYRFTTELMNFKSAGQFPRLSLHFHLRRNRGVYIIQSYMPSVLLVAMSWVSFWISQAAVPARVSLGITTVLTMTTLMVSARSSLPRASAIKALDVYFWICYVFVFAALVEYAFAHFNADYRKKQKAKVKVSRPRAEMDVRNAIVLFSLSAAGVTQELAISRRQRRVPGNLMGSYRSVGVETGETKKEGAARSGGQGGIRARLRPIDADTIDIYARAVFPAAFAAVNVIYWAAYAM

[1] = target: [35S]-TBPS binding, rat brain cortical membranes; assay: Steroid inhibition of [35S]-TBPS binding; settings: 3 nM [35S]-TBPS, in the presence of 5 μM GABA
Protocol: [35S]-Butylbicyclophosphorothionate (TBPS) binding assays using rat brain cortical membranes in the presence of 5 μM GABA has been described (Gee et al, J. Pharmacol. Exp. Ther. 1987, 241, 346-353; Hawkinson et al, Mol. Pharmacol. 1994, 46, 977-985; Lewin, A. H et al., Mol. Pharmacol. 1989, 35, 189-194).
Briefly, cortices are rapidly removed following decapitation of carbon dioxide-anesthetized Sprague-Dawley rats (200-250 g). The cortices are homogenized in 10 volumes of ice-cold 0.32 M sucrose using a glass/teflon homogenizer and centrifuged at 1500×g for 10 min at 4° C. The resultant supernatants are centrifuged at 10,000×g for 20 min at 4° C. to obtain the P2 pellets. The P2 pellets are resuspended in 200 mM NaCl/50 mM Na—K phosphate pH 7.4 buffer and centrifuged at 10,000×g for 10 min at 4° C. This washing procedure is repeated twice and the pellets are resuspended in 10 volumes of buffer. Aliquots (100 μL) of the membrane suspensions are incubated with 3 nM [^35S]-TBPS and 5 μL aliquots of test drug dissolved in dimethyl sulfoxide (DMSO) (final 0.5%) in the presence of 5 μM GABA. The incubation is brought to a final volume of 1.0 mL with buffer. Nonspecific binding is determined in the presence of 2 μM unlabeled TBPS and ranged from 15 to 25%. […] Filter bound radioactivity is measured by liquid scintillation spectrometry. […]

α1β2γ2 GABAA receptors = target: T2, α1β2γ2 GABAA receptors (Homo sapiens, UniProt P14867+P47870); assay: Patch clamp electrophysiology (QPatch) of recombinant α1β2γ2 GABAA receptors in LTK cells; type: cell-based; settings: 10 μM test article, GABA EC20 = 2 μM, read-out: GABA (α1β2γ2) Qpatch in Ltk, % efficacy at 10 μM
T2 construct: expressed in transfected cells
T2 sequence (P14867 28-456): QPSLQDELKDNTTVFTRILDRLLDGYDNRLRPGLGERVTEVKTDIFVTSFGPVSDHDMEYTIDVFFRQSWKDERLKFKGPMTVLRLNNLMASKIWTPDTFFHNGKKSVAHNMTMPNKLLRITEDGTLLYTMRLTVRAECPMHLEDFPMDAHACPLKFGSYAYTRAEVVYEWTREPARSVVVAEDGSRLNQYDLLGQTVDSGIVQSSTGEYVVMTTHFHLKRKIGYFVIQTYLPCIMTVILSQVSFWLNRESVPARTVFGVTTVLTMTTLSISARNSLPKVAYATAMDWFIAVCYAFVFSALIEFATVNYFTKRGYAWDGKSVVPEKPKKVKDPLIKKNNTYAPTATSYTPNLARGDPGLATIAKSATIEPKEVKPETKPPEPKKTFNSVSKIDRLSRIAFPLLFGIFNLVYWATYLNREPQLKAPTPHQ
T2 sequence (P47870 25-512 limits assumed): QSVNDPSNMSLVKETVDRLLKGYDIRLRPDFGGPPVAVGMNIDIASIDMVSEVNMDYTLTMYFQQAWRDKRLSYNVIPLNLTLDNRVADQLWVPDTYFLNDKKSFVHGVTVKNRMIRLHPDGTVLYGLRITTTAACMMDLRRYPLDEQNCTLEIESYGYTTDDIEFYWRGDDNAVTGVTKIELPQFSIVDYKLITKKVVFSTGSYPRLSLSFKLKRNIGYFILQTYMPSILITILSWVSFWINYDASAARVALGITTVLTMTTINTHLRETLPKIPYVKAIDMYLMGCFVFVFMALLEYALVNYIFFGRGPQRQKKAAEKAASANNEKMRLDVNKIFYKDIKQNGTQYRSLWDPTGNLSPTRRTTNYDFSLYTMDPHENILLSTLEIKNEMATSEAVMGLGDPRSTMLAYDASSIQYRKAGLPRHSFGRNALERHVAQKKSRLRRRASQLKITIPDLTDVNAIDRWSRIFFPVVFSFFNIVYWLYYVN
T2 sequence (P18507 40-475 partner): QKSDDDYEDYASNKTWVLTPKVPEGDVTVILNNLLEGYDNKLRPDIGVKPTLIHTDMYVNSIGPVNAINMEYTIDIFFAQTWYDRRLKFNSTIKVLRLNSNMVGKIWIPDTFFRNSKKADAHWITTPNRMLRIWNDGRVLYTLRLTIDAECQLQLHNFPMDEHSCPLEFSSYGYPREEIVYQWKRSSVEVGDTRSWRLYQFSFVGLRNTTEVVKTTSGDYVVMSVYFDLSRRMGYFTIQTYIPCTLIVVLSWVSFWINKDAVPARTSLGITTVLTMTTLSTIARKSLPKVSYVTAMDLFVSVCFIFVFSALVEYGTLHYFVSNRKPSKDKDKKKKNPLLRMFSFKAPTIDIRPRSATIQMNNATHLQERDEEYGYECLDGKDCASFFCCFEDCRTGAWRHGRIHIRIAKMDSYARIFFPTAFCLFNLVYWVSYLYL

## CC(=O)[C@H]1CC[C@H]2[C@@H]3CC[C@@H]4C[C@](C)(O)CC[C@]4(COC(C)C)[C@H]3CC[C@]12C [Compound 5]
α4β3δ GABAA receptors
  Emax at 10 µM: > 500%
[1]
  IC50: < 10 nM
α1β2γ2 GABAA receptors
  Emax at 10 µM: > 500%
